The values below come from US4550186A, “Binuclear copper (II) carboxylates formed from amine-carboxyboranes” (Duke University, priority 1983, dated 1985).

The target of this assay is T1, transfer ribonucleic acid polymerase (Mus musculus, UniProt B2RXC6+P59470).
T1 sequence (B2RXC6 1-1390): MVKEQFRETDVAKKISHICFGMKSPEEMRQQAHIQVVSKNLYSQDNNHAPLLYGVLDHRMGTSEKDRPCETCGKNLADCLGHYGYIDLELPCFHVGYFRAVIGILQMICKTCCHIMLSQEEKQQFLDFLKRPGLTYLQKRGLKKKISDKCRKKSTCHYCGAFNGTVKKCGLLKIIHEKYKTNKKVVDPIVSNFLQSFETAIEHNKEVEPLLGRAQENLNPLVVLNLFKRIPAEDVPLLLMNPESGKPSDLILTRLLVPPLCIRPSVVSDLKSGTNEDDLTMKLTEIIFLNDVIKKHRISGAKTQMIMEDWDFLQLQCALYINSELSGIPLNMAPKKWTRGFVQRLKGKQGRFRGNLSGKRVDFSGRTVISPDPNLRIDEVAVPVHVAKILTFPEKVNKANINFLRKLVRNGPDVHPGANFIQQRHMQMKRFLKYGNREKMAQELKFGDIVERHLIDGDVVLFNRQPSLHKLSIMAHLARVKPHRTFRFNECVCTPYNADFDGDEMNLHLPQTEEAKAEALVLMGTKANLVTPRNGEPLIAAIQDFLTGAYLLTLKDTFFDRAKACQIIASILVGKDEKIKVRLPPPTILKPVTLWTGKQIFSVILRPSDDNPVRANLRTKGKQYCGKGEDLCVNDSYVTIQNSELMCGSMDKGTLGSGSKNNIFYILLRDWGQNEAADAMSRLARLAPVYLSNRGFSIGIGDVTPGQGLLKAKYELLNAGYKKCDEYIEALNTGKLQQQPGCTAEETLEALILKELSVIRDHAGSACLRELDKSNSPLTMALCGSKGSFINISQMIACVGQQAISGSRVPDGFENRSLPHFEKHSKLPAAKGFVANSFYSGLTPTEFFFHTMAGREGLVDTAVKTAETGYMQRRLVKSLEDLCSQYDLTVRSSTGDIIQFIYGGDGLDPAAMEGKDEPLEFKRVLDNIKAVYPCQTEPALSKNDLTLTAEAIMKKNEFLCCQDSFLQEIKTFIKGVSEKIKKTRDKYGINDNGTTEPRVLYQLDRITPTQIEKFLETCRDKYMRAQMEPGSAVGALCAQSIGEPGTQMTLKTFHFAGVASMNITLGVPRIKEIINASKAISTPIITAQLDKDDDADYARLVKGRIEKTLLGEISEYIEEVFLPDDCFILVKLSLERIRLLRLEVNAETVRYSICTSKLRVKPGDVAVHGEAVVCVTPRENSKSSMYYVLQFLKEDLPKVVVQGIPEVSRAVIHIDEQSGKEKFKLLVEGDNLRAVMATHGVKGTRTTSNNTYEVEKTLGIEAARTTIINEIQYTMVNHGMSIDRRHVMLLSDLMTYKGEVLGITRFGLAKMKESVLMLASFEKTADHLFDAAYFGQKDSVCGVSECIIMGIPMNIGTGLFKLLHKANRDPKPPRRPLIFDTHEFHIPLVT
T1 sequence (P59470 1-1133): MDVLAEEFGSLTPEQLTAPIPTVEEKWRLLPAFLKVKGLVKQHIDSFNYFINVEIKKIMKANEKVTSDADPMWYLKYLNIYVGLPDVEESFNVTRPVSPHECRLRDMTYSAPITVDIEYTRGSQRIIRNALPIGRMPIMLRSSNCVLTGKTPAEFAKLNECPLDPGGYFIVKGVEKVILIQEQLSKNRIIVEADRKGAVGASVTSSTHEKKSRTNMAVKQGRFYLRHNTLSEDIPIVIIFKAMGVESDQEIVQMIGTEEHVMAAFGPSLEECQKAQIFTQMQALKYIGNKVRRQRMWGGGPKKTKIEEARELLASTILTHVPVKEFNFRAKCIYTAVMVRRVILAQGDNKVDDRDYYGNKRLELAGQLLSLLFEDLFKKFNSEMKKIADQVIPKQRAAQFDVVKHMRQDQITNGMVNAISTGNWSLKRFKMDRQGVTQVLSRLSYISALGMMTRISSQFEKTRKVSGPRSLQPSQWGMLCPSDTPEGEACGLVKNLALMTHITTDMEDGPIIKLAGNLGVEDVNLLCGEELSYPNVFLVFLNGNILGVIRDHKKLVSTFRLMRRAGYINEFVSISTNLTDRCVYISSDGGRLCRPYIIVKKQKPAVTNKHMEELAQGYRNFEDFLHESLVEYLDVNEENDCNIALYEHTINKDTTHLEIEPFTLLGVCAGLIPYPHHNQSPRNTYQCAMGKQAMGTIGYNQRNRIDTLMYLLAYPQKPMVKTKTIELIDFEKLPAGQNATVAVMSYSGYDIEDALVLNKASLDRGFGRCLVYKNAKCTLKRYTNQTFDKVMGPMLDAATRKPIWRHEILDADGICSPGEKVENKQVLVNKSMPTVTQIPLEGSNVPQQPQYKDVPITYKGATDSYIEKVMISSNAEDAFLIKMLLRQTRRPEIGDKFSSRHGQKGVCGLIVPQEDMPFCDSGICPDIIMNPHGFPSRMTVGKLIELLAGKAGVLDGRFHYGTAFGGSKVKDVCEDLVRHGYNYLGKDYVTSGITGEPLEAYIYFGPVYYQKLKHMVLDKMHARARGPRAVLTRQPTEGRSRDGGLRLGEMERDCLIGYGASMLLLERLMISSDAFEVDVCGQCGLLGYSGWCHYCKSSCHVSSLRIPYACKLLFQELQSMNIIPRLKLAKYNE
Nature of the assay: In vitro transfer ribonucleic acid polymerase activity. Type of assay: biochemical. The settings on record: read-out: ID50, Transfer ribonucleic acid polymerase activity. How it is done:
CF1 male mice (~30 g) were implanted with 2×10^6 Ehrlich ascites tumor cells, intraperitoneally on Day 0. Compound I was suspended by homogenation in 0.05% polysorbate.80-water and administered intraperitoneally at 10 and 20 mg/kg for 9 days to determine its effectiveness for inhibition of tumor growth. Mice were sacrificed on Day 10, and the ascites fluid was collected from the peritoneal cavity. The volume and ascrit (packed cell volume) were determined for each animal and the percent inhibition of tumor growth was calculated. For the metabolic studies, mice were treated on Days 8 and 9 with 10 mg/kg of Compound I, intraperitoneally. The animal was sacrificed on Day 10 and the ascites fluid harvested. The in vitro metabolic studies were performed at […] final concentration of Compound I.
In vitro and in vivo nuclear deoxyribonucleic acid polymerase activity was determined on isolated Ehrlich ascites cell nuclei. The incubation was that described by Sawada et al [Can. Res., 34, 3341 (1974)] except that [methyl-^3 H] deoxythymidine triphosphate (82.4 Ci/mmol) was used. The acid insoluble nucleic acid was collected on GF/F filters and counted. Nuclear ribonucleic acid polymerase activities were determined on enzymes isolated from nuclei. […] The acid insoluble ribonucleic acid was collected on nitrocellulose filters and counted.

For “{Cu[(CH3)3 N.BH2 CO2 ]2.(CH3)3 N.BH2 COOH} [Compound I]”, the IC50 is 433 µM.
